From patent US5621010A, “Urea derivatives and their use as ACAT inhibitors” (Nisshin Flour Milling Co., Ltd., priority 1993, dated 1997) come the findings set out here.

Assay [1] concerns ACAT (liver microsome fractions of male rabbits). As to the kind of experiment: ACAT inhibitory activity: formation of labelled cholesteryl esters from [1-14C]oleoyl-CoA and endogenous cholesterol. The assay is classed as biochemical, rabbit. As to conditions: compound added at 10^-7 M. The protocol: The enzyme preparation, ACAT was prepared from liver microsme fractions of male rabbits according to the method of E. E. Largis et al. (Journal of Lipid Research, Vol. 30, pages 681-690, 1989). The activity was calculated by assaying the amount of the labelled cholesteryl esters formed from [1-^14 C]oleoyl-CoA and endogenous cholesterol according to the method of Kazuichi NATORI et al. (Japan J. Pharmacol., Vol. 42, pages 517-523, 1986).
The result is shown in Table 1, in which percent inhibition of the formation of the labelled cholesteryl esters with a compound added at 10^-7 M is indicated as index for the ACAT inhibitory activity.

The test system of assay [2] is Human LDL. Description: Antioxidative activity: inhibition of MDA formation from LDL incubated with cupric sulfate. The assay is classed as biochemical. As to conditions: compound 10^-5 M; cupric sulfate 5×10^-6 M; 5 hrs; compared with control. How it is done: Human LDL was incubated in the presence of cupric sulfate (5×10^-6 M) and in the presence or absence of a compound (10^-5 M) for 5 hrs. After the incubation, the peroxidation of low-density lipoproteins (LDL) is evaluated by the formation of malondialdehyde (MDA), which is a sort of lipid peroxides according to the method of Simon J. T. Mao et al. (J. Med. Chem., Vol. 34, pages 298-302, 1991). Activity of the compound is shown by percent inhibition of the MDA formation as compared with control.

Assay [3] can be described thus: Cholesterol-lowering activity in hypercholesteremic rats. The assay is classed as in vivo, Sprague-Dawley male rats. The note with it: 30 mg/kg oral, in 0.5% methylcellulose; plasma cholesterol prior to and 5 hrs after administration. How it is done:
Sprague-Dawley male rats were given a powdery feed containing 1% cholesterol and 0.5% cholic acid in an amount of 15 g per day per animal for 3 days to produce hypercholesteremic rats. Four days later, a compound suspended in 0.5% methylcellulose was administered orally at a dose of 30 mg/kg. Blood was drawn prior to and 5 hrs after the administration of the compound, for which the plasma cholesterol level was measured using a commercially available assay kit (Cholesterol E Test Wako, Wako Junyaku K.K.).

For the compound `CC(C)(C)c1cc(CCc2ccccc2NC(=O)NC2CCN(Cc3ccccc3)CC2)cc(C(C)(C)C)c1O` [Example 35, N-[2-(3,5-di-tert-butyl-4-hydroxyphenethyl)phenyl]-N'-(1-benzyl-4-piperidyl)urea], the “ACAT Inhibition” value in assay [1] is recorded as 82%. Moreover, the “Antioxidant Activity (percent inhibition of the MDA formation)” value in assay [2] came out at 94%. Besides, the “Percent Reduction of Cholesterol” value in assay [3] is 48.4%.

As for `CC(C)(C)c1cc(CCc2ccccc2NC(=O)NCC(C)(C)c2ccc(Cl)c(Cl)c2)cc(C(C)(C)C)c1O` [Example 77, N-[2-(3,5-di-tert-butyl-4-hydroxyphenethyl)phenyl]-N'-[2-(3,4-dichlorophenyl)-2-methylpropyl]urea], the “ACAT Inhibition” value in assay [1] was found to be 96%. Moreover, the “Antioxidant Activity (percent inhibition of the MDA formation)” value in assay [2] is 95%.

Take `CC(C)(C)c1cc(CCc2ccccc2NC(=O)NC2CCN(Cc3ccc(F)cc3F)CC2)cc(C(C)(C)C)c1O` [Example 80, N-[2-(3,5-di-tert-butyl-4-hydroxyphenethyl)phenyl]-N'-[1-(2,4-difluorobenzyl)-4-pyperidyl]urea]: the “ACAT Inhibition” value in assay [1] was 92%. Also, in assay [2], the “Antioxidant Activity (percent inhibition of the MDA formation)” value is 96%.

With `CC(C)(C)c1cc(CCc2ccccc2NC(=O)NC2CCN(Cc3ccc(F)cc3)CC2)cc(C(C)(C)C)c1O` [Example 83, N-[2-(3,5-di-tert-butyl-4-hydroxyphenethyl)phenyl]-N'-[1-(4-fluorobenzyl)-4-piperidyl]urea], in assay [1], the “ACAT Inhibition” value is reported as 96%. The “Antioxidant Activity (percent inhibition of the MDA formation)” value in assay [2] is 96%. Moreover, the “Percent Reduction of Cholesterol” value in assay [3] is 44.6%.

For the compound `CC(C)(C)c1cc(CCc2ccccc2NC(=O)NC2CCN(Cc3ccc(C(F)(F)F)cc3C(F)(F)F)CC2)cc(C(C)(C)C)c1O` [Example 85, N-[2-(3,5-di-tert-butyl-4-hydroxyphenethyl)phenyl]-N'-[1[-2,4-bis(trifluoromethyl)benzyl]-4-piperidyl]urea], the “ACAT Inhibition” value in assay [1] was 97%. In addition, the “Antioxidant Activity (percent inhibition of the MDA formation)” value in assay [2] worked out at 94%.

For `CC(C)(C)c1cc(CCc2ccccc2NC(=O)NCC2CCCCC2)cc(C(C)(C)C)c1O` [Example 90, N-[2-(3,5-di-tert-butyl-4-hydroxyphenethyl)phenyl]-N'-(cyclohexylmethyl)urea], the “ACAT Inhibition” value in assay [1] amounted to 92%. Also, the “Antioxidant Activity (percent inhibition of the MDA formation)” value in assay [2] was determined as 93%.

Turning to `CN(C(=O)Nc1ccccc1CCc1cc(C(C)(C)C)c(O)c(C(C)(C)C)c1)C1CCN(Cc2ccccc2)CC1` [Example 92, N-[2-(3,5-di-tert-butyl-4-hydroxyphenethyl)phenyl]-N'-(1-benzyl-4-piperidyl)-N'-methylurea], the “ACAT Inhibition” value in assay [1] is reported as 99%. Further, the “Antioxidant Activity (percent inhibition of the MDA formation)” value in assay [2] stood at 96%. Besides, in assay [3], the “Percent Reduction of Cholesterol” value was 79.9%.

Turning to `CC(C)(C)CN1CCC(NC(=O)Nc2ccccc2CCc2cc(C(C)(C)C)c(O)c(C(C)(C)C)c2)CC1` [Example 97, N-[2-(3,5-di-tert-butyl-4-hydroxyphenethyl)phenyl]-N'-[1-(2,2-dimethylpropyl)-4-piperidyl]urea], the “ACAT Inhibition” value in assay [1] turned out to be 89%. In addition, the “Antioxidant Activity (percent inhibition of the MDA formation)” value in assay [2] was 96%.

As for `CN(C(=O)Nc1ccccc1CCc1cc(C(C)(C)C)c(O)c(C(C)(C)C)c1)C1CCCN(Cc2ccccc2)C1` (stereo not drawn) [Example 99, N-[2-(3,5-di-tert-butyl-4-hydroxyphenethyl)phenyl]-N'-(1-benzyl-3-piperidyl)-N'-methylurea], the “ACAT Inhibition” value in assay [1] is given as 100%. For the same compound, the “Antioxidant Activity (percent inhibition of the MDA formation)” value in assay [2] was 95%.

Regarding `CCCCCCCN(C)C(=O)Nc1ccccc1/C=C/c1cc(C(C)(C)C)c(O)c(C(C)(C)C)c1` [Example 105, N-[2-(3,5-di-tert-butyl-4-hydroxystyryl)phenyl]-N'-methyl-N'-heptylurea], the “Percent Reduction of Cholesterol” value in assay [3] was determined as 45.9%.

As to `CC(C)(C)c1cc(CCc2cc(F)cc(F)c2NC(=O)NC2CCN(Cc3ccccc3)CC2)cc(C(C)(C)C)c1O` [Example 108, N-[2-(3,5-di-tert-butyl-4-hydroxyphenethyl)-4,6-difluorophenyl]-N'-(1-benzyl-4-piperidyl)urea], the “ACAT Inhibition” value in assay [1] is reported as 97%. Besides, in assay [2], the “Antioxidant Activity (percent inhibition of the MDA formation)” value is 93%. Also, in assay [3], the “Percent Reduction of Cholesterol” value is given as 71.8%.

On to `CC(C)(C)c1cc(CCc2ccccc2NC(=O)N2CCN(Cc3ccccc3)CC2)cc(C(C)(C)C)c1O` [Example 114, 1-Benzyl-4-[N-[2-(3,5-di-tert-butyl-4-hydroxyphenethyl)phenyl]carbamoyl]piperazine], for which the “ACAT Inhibition” value in assay [1] is 82%. In addition, in assay [2], the “Antioxidant Activity (percent inhibition of the MDA formation)” value amounted to 98%.

Turning to `CC(C)(C)c1cc(CCc2ccccc2NC(=O)N2CCC(Cc3ccccc3)CC2)cc(C(C)(C)C)c1O` [Example 115, 4-Benzyl-1-[N-[2-(3,5-di-tert-butyl-4-hydroxyphenethyl)phenyl]carbamoyl]piperidine], the “ACAT Inhibition” value in assay [1] amounted to 87%. Also, the “Antioxidant Activity (percent inhibition of the MDA formation)” value in assay [2] is recorded as 98%.

Regarding `CC(C)(C)c1cc(CCc2ccccc2NC(=O)N2CCc3ccccc3C2)cc(C(C)(C)C)c1O` [Example 117, 2-[N-[2-(3,5-di-tert-butyl-4-hydroxyphenethyl)phenyl]carbamoyl]-1,2,3,4-tetrahydroisoquinoline], the “ACAT Inhibition” value in assay [1] is recorded as 91%. Moreover, in assay [2], the “Antioxidant Activity (percent inhibition of the MDA formation)” value is 97%.

For `CC(C)(C)c1cc(CCc2ccccc2NC(=O)N2CCN(c3ccccc3)CC2)cc(C(C)(C)C)c1O` [Example 124, 1-[N-[2-(3,5-di-tert-butyl-4-hydroxyphenethyl)phenyl]carbamoyl]-4-phenylpiperazine], in assay [1], the “ACAT Inhibition” value is reported as 81%. The “Antioxidant Activity (percent inhibition of the MDA formation)” value in assay [2] is 95%.

As to `CC(C)(C)c1cc(CCc2ccccc2NC(=O)N2CCCC3CCCCC32)cc(C(C)(C)C)c1O` (stereo not drawn) [Example 130, 1-[N-[2-(3,5-di-tert-butyl-4-hydroxyphenethyl)phenyl]carbamoyl]decahydroquinoline], the “ACAT Inhibition” value in assay [1] worked out at 99%. The “Antioxidant Activity (percent inhibition of the MDA formation)” value in assay [2] came out at 95%. Besides, the “Percent Reduction of Cholesterol” value in assay [3] amounted to 71.5%.
